According to patent US10597388B2, “Pyridazinone herbicides” (FMC CORPORATION, priority 2014, dated 2020):
Where two headings read alike, the source gives them in different places.

What was measured:
Assay type in all cases: in vivo
[1] = tested on: foxtail, giant (giant foxtail, Setaria faberii); assay: Test A greenhouse herbicide test, pre- and postemergence; conditions: for pest or weed control at 125 g/ha / pest or weed control at 500 g/ha: Setaria faberi, 240 h
How it was run: (§1)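 Visual injury ratings, 0 (no effect) to 100 (complete control), versus untreated plants after roughly 10 d in a greenhouse. Compounds, formulated in a surfactant-containing non-phytotoxic solvent, were sprayed on loam–sand soil after sowing (pre) or on one- to two-leaf plants 2–10 cm tall (post).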

[2] = tested on: barnyardgrass (Echinochloa crus-galli); assay: Test B flooded paddy test; conditions: Echinochloa crus-galli, 360 h; 250 g ai/ha, Flood; visual rating on scale of 0 to 100 where 0 is no effect and 100 is complete control; 13 to 15 d after treatment; read-out: Plant response rating, Barnyardgrass
How it was run: (§2)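 Ratings use a 0-100 visual scale, where 100 is complete control, and compare treated plants with controls after 13 to 15 d of greenhouse growth. Compound went straight into paddy water kept 3 cm over the soil surface, applied to seedlings at the 2-leaf stage.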

[3] = tested on: ducksalad (Heteranthera limosa); assay: Test B flooded paddy test; conditions: Heteranthera limosa, 360 h; 250 g ai/ha, Flood; visual rating on scale of 0 to 100 where 0 is no effect and 100 is complete control; 13 to 15 d after treatment; read-out: Plant response rating, Ducksalad
How it was run: as §2

rice (Oryza sativa) = assay: Test B flooded paddy test; conditions: Oryza sativa, 360 h; 250 g ai/ha, Flood; visual rating on scale of 0 to 100 where 0 is no effect and 100 is complete control; 13 to 15 d after treatment; read-out: Plant response rating, Rice
How it was run: as §2

[4] = tested on: sedge, umbrella (small-flower umbrella sedge, Cyperus difformis); assay: Test B flooded paddy test; conditions: Cyperus difformis, 360 h; 250 g ai/ha, Flood; visual rating on scale of 0 to 100 where 0 is no effect and 100 is complete control; 13 to 15 d after treatment; read-out: Plant response rating, Sedge, Umbrella
How it was run: as §2

[5] = tested on: ryegrass, Italian (Italian ryegrass, Lolium multiflorum); assay: Test A greenhouse herbicide test, pre- and postemergence; conditions: for pest or weed control at 125 g/ha / pest or weed control at 500 g/ha: Lolium multiflorum, 240 h
How it was run: as §1

[6] = tested on: chickweed (common chickweed, Stellaria media); assay: Test C greenhouse herbicide test, postemergence
How it was run: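 Seedlings are raised in pots of peat moss–vermiculite medium with starter nutrients, then receive postemergence test chemical at the 1- to 4-leaf stage. They are kept in the greenhouse 13 to 15 d and scored visually versus controls, 0 meaning no effect and 100 complete control.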

[7] = post-emergence, Postemergence, 125 g ai/ha, visual rating after approx. 10 d, 0 to 100 scale (0 no effect, 100 complete control), read-out: Plant response rating, Foxtail, Giant
[8] = post-emergence, Postemergence, 500 g ai/ha, 0 to 100 scale, 0 is no effect, 100 is complete control, read-out: Foxtail, Giant plant response rating
[9] = pre-emergence, Preemergence, 125 g ai/ha, 0 to 100 scale where 0 is no effect and 100 is complete control, read-out: Foxtail, Giant plant response rating
[10] = pre-emergence, Preemergence, 500 g ai/ha, 0 to 100 scale, 0 no effect, 100 complete control, read-out: Plant response rating, Foxtail, Giant
[11] = post-emergence, Postemergence, 125 g ai/ha, visual rating after approx. 10 d, 0 to 100 scale (0 no effect, 100 complete control), read-out: Plant response rating, Ryegrass, Italian
[12] = post-emergence, Postemergence, 500 g ai/ha, 0 to 100 scale, 0 is no effect, 100 is complete control, read-out: Ryegrass, Italian plant response rating
[13] = pre-emergence, Preemergence, 125 g ai/ha, 0 to 100 scale where 0 is no effect and 100 is complete control, read-out: Ryegrass, Italian plant response rating
[14] = pre-emergence, Preemergence, 500 g ai/ha, 0 to 100 scale, 0 no effect, 100 complete control, read-out: Plant response rating, Ryegrass, Italian
[15] = Postemergence, 500 g ai/ha, 0 to 100 scale, 0 is no effect, 100 is complete control
[16] = Preemergence, 125 g ai/ha, 0 to 100 scale where 0 is no effect and 100 is complete control
[17] = Preemergence, 500 g ai/ha, 0 to 100 scale, 0 no effect, 100 complete control
[18] = Postemergence, 125 g ai/ha, 0 to 100 scale where 0 is no effect and 100 is complete control
[19] = Postemergence, 31 g ai/ha, 0 to 100 scale (0 no effect, 100 complete control)
[20] = Postemergence, 125 g ai/ha, scale 0 to 100, 0 is no effect, 100 is complete control
[21] = Postemergence, 250 g ai/ha, scale 0 to 100, 0 no effect, 100 complete control, 13 to 15 d
[22] = postemergence, 62 g ai/ha, scale 0 to 100, 0 no effect, 100 complete control
[23] = Preemergence, 500 g ai/ha, 0 to 100 scale where 0 is no effect and 100 is complete control
[24] = Postemergence, 500 g ai/ha, visual rating after approx. 10 d, 0 to 100 scale (0 no effect, 100 complete control)
[25] = Postemergence, 31 g ai/ha, scale 0 to 100 (0 no effect, 100 complete control)

| SMILES | Foxtail, Giant plant response rating [1, 15] | Foxtail, Giant plant response rating [1, 16] | Plant response rating, Ryegrass, Italian [5, 18] | Ryegrass, Italian plant response rating [5, 15] | Ryegrass, Italian plant response rating [5, 16] | Chickweed plant response rating [6, 19] | Plant response rating, Chickweed [6, 20] | Plant response rating, Chickweed [6, 21] | Chickweed plant response rating [6, 22] | Plant response rating, Foxtail, Giant [1, 18] | Plant response rating, Foxtail, Giant [1, 23] | Plant response rating, Ryegrass, Italian [5, 23] | Plant response rating, Foxtail, Giant [1, 24] | Plant response rating, Ryegrass, Italian [5, 24] | Plant response rating, Chickweed [6, 25] | also measured |
| --- | --- | --- | --- | --- | --- | --- | --- | --- | --- | --- | --- | --- | --- | --- | --- | --- |
| Cc1nn(C)c(=O)c(-c2c(C)oc3c(C)cccc23)c1O [Compound 9, 4-(2,7-dimethyl-3-benzofuranyl)-5-hydroxy-2,6-dimethyl-3(2H)-pyridazinone] | – | – | – | – | – | – | – | – | – | – | – | – | – | – | – | pest or weed control at 125 g/ha [1, 7]: 10%; pest or weed control at 500 g/ha [1, 8]: 90%; pest or weed control at 125 g/ha [1, 9]: 70%; pest or weed control at 500 g/ha [1, 10]: 100%; pest or weed control at 250 g/ha [2]: 0%; pest or weed control at 250 g/ha [3]: 0%; plant injury at 250 g/ha (rice (Oryza sativa)): 0%; pest or weed control at 250 g/ha [4]: 0% |
| Cc1cc(C)c2oc(C)c(-c3c(O)c(C)nn(C)c3=O)c2c1 [Compound 12, 5-hydroxy-2,6-dimethyl-4-(2,5,7-trimethyl-3-benzofuranyl)-3(2H)-pyridazinone] | – | – | – | – | – | – | – | – | – | – | – | – | – | – | – | pest or weed control at 125 g/ha [1, 7]: 10%; pest or weed control at 500 g/ha [1, 8]: 70%; pest or weed control at 125 g/ha [1, 9]: 20%; pest or weed control at 500 g/ha [1, 10]: 90%; pest or weed control at 125 g/ha [5, 11]: 60%; pest or weed control at 500 g/ha [5, 12]: 70%; pest or weed control at 125 g/ha [5, 13]: 20%; pest or weed control at 500 g/ha [5, 14]: 50%; pest or weed control at 250 g/ha [2]: 0%; pest or weed control at 250 g/ha [3]: 30%; plant injury at 250 g/ha (rice (Oryza sativa)): 0%; pest or weed control at 250 g/ha [4]: 0% |
| CC(=O)Oc1c(C)nn(C)c(=O)c1-c1c(C)oc2c(C)cccc12 [Compound 15, 5-(acetyloxy)-4-(2,7-dimethyl-3-benzofuranyl)-2,6-dimethyl-3(2H)-pyridazinone] | – | – | – | – | – | – | – | – | – | – | – | – | – | – | – | pest or weed control at 125 g/ha [1, 7]: 70%; pest or weed control at 500 g/ha [1, 8]: 90%; pest or weed control at 125 g/ha [1, 9]: 10%; pest or weed control at 500 g/ha [1, 10]: 70%; pest or weed control at 125 g/ha [5, 11]: 50%; pest or weed control at 500 g/ha [5, 12]: 90%; pest or weed control at 125 g/ha [5, 13]: 50%; pest or weed control at 500 g/ha [5, 14]: 100%; pest or weed control at 250 g/ha [2]: 0%; pest or weed control at 250 g/ha [3]: 20%; plant injury at 250 g/ha (rice (Oryza sativa)): 0%; pest or weed control at 250 g/ha [4]: 0% |
| CCOC(=O)Oc1c(C)nn(C)c(=O)c1-c1c(CC)ccc2ccccc12 [Compound 37] | 90 | 70 | 90 | 100 | 90 | 90 | 90 | 95 | 90 | – | – | – | – | – | – | Plant response rating, Foxtail, Giant ([1]; Postemergence, 125 g ai/ha, visual rating after approx. 10 d, 0 to 100 scale (0 no effect, 100 complete control)): 80; Plant response rating, Foxtail, Giant [1, 17]: 90; Plant response rating, Ryegrass, Italian [5, 17]: 100 |
| COc1ccc2ccccc2c1-c1c(O)c(C)nn(C)c1=O [Compound 40] | 80 | 40 | 90 | 90 | 60 | 55 | 90 | – | 60 | 60 | – | – | – | – | – | Plant response rating, Foxtail, Giant [1, 17]: 70; Plant response rating, Ryegrass, Italian [5, 17]: 100; Plant response rating, Chickweed ([6]; Postemergence, 16 g ai/ha, scale 0 to 100 (0 no effect, 100 complete control)): 50 |
| Cc1ccc(-c2c(O)c(Br)nn(C)c2=O)c2ccccc12 [Compound 52] | 50 | 40 | 70 | 80 | 80 | 95 | 98 | 100 | 90 | 40 | – | – | – | – | – | Plant response rating, Foxtail, Giant [1, 17]: 60; Plant response rating, Ryegrass, Italian [5, 17]: 80 |
| CC(=O)Oc1c(C)nn(C)c(=O)c1-c1ccc(F)c2ccccc12 [Compound 90] | 100 | 50 | 100 | 100 | 100 | 90 | 95 | 98 | 90 | 80 | 100 | 100 | – | – | – | – |
| Cc1nn(C)c(=O)c(-c2c(C)sc3ccc(Cl)cc23)c1O [Compound 104] | – | 70 | 100 | – | 100 | – | 100 | 100 | 98 | 80 | 100 | 100 | 100 | 100 | 90 | – |
| CCCC(=O)Oc1c(C)nn(C)c(=O)c1-c1c(C)sc2c(C)cc(C)cc12 [Compound 106] | – | 100 | 90 | – | 100 | – | 95 | 98 | 98 | 90 | 100 | 100 | 90 | 100 | 95 | – |
| CCC(=O)Oc1c(C)nn(C)c(=O)c1-c1c(C)sc2ccc(Cl)cc12 [Compound 109] | – | 90 | 100 | – | 100 | – | 95 | 100 | 95 | 70 | 100 | 100 | 90 | 100 | 80 | – |
| CC(=O)Oc1c(Br)nn(C)c(=O)c1-c1c(C)ccc2ccccc12 [Compound 129] | – | 90 | 100 | – | 100 | – | – | 100 | – | 90 | 100 | 100 | 100 | 100 | 98 | Chickweed plant response rating ([6]; Postemergence, 62 g ai/ha, 0 to 100 scale (0 no effect, 100 complete control)): 98; Chickweed plant response rating ([6]; postemergence, 125 g ai/ha, scale 0 to 100, 0 no effect, 100 complete control): 100 |
